# Assays:
# wild type Kit = wild type Kit (Homo sapiens (Human), UniProt P10721); assay: Kit wild type assay at Km (Caliper electrophoretic mobility shift); assay type: biochemical; conditions: wild type Kit 2 nM, 400 uM ATP (Km), 1 uM Srctide, 25 C, 90 minutes; read-out: INH-KITWT ENZ-KM IC50 (nM) (Num)
# Procedure: (§1) In order to assess the activity of chemical compounds against the relevant kinase of interest, the Caliper LifeSciences electrophoretic mobility shift technology platform is used. Fluorescently labeled substrate peptide is incubated in the presence of kinase and ATP so that a […] proportion of the peptide is phosphorylated. At the end of the reaction, the mix of phosphorylated (product) and non-phosphorylated (substrate) peptides are passed through the microfluidic system of the Caliper EZ Reader 2, under an applied potential difference. The presence of the phosphate group on the product peptide provides a difference in mass and charge between those of the substrate peptide, resulting in a separation of the substrate and product pools in the sample. As the pools pass a LEDS within the instrument, these pools are detected and resolved as separate peaks. The ratio between these peaks therefore reflects the activity of the chemical matter at that concentration in that well, under those conditions.
# (§2) The reaction was stopped by the addition of 70 ul of Stop buffer (100 mM HEPES pH 7.5, 0.015% Brij 35, 35 mM EDTA and 0.2% of Coating Reagent 3 (Caliper Lifesciences)). The plate was then read on a Caliper EZReader 2 (protocol settings: −1.9 psi, upstream voltage −700, downstream voltage −3000, post sample sip 35 s).
# D816V Kit = D816V Kit (Homo sapiens (Human), UniProt P10721, D816V); assay: Kit D816V assay at Km (Caliper electrophoretic mobility shift); assay type: biochemical; conditions: for IC50: D816V Kit 0.5 nM, 15 uM ATP (Km), 1 uM Srctide, 25 C, 90 minutes, read-out: INH-KITD816V ENZ-KM IC50 (nM) (Num); for times more potent against the D816V mutant than against the wild-type Kit: D816V Kit versus wild-type Kit, enzyme assays at Km
# Chain of D816V Kit (P10721 26-976 D816V): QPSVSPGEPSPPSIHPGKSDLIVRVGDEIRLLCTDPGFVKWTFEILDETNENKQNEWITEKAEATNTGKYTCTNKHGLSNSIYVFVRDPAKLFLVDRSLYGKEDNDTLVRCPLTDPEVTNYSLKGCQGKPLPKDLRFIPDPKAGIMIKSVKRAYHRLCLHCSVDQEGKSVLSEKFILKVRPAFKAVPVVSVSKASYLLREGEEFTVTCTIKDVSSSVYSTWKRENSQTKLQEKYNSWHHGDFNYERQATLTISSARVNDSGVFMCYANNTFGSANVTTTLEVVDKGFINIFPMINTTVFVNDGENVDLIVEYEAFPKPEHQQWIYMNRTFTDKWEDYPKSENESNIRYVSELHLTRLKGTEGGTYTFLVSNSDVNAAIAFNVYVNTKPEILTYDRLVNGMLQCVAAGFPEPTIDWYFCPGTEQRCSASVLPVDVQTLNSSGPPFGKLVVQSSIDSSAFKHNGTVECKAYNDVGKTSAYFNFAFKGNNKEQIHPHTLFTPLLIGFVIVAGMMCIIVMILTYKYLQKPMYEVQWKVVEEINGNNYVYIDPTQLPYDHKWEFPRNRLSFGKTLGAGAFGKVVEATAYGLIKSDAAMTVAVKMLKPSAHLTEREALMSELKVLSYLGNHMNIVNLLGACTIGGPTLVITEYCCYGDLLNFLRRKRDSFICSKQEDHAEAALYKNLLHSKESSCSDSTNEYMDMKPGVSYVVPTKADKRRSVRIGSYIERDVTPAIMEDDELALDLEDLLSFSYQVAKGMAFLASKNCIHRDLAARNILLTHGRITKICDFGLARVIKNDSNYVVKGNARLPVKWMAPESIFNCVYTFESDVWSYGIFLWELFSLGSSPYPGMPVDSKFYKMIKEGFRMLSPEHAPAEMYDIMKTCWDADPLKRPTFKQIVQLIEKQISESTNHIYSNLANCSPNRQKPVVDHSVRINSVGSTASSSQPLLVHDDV
# Procedure: as §1, §2
# Chain of wild type Kit (P10721 26-976): as the sequence (P10721 26-976 D816V) above, with V791D counted along it
Compound,IC50 (wild type Kit),IC50 (D816V Kit),times more potent against the D816V mutant than against the wild-type Kit (D816V Kit)
COc1cc2ncnc(N3CC4CCC(C3)N4c3ncc(Cc4ccccc4)cn3)c2cc1OCC1CNCCO1 (centres unmarked) [Compound 121],11 to 100 nM,< 1 nM,–
COc1cc2ncnc(N3CCN(c4ncc(Cc5ccccc5)cn4)C(C)C3)c2cc1OC (centres unmarked) [Compound 26],100 to 1000 nM,10 to 100 nM,–
COc1cc2ncnc(N3CCN(c4ncc(OCc5ccccc5)cn4)[C@H](C)C3)c2cc1OC [Compound 60],100 to 1000 nM,10 to 100 nM,–
COc1cc2ncnc(N3CCN(c4ncc(OCC5CCCC5)cn4)CC3)c2cc1OC [Compound 18],> 1000 nM,> 100 nM,at least 100 times
COc1cc2ncnc(N3CCN(c4ncc(Nc5ccc(Cl)cc5)cn4)CC3)c2cc1OC [Compound 70],100 to 1000 nM,1.01 to 10 nM,–
COc1cc2ncnc(N3CCN(c4ncc(OCc5ccc(C)cc5)cn4)CC3)c2cc1OC [Compound 62],> 1000 nM,10 to 100 nM,at least 100 times
COc1cc2ncnc(N3CCN(c4ncc(CCc5ccccc5)cn4)CC3)c2cc1OC [Compound 24],100 to 1000 nM,1.01 to 10 nM,–
COc1cc2ncnc(N3CCN(c4ncc(OCc5ccsc5)cn4)CC3)c2cc1OC [Compound 44],100 to 1000 nM,10 to 100 nM,–
"COc1cc2ncnc(N3CCN(c4ncc(Oc5ccccc5)cn4)CC3)c2cc1OC [Compound 14, 6,7-dimethoxy-4-(4-(5-phenoxypyrimidin-2-yl)piperazin-1-yl)quinazoline]",11 to 100 nM,1.01 to 10 nM,–
COc1cc2ncnc(N3CCN(c4ncc(OCc5cccc(C)c5)cn4)CC3)c2cc1OC [Compound 61],100 to 1000 nM,10 to 100 nM,–
COc1cc2ncnc(N3CCN(c4ncc(OCc5ccccc5)cn4)C(C)C3)c2cc1OC (centres unmarked) [Compound 66],> 1000 nM,10 to 100 nM,–
"COc1cc2ncnc(N3CCN(c4ncc(NCc5ccccc5)cn4)CC3)c2cc1OC [Compound 34, N-benzyl-2-(4-(6,7-dimethoxyquinazolin-4-yl)piperazin-1-yl)pyrimidin-5-amine]",100 to 1000 nM,10 to 100 nM,–
COc1ccc2ncnc(N3CCN(c4ncc(OCc5ccccc5)cn4)CC3)c2c1 [Compound 10],> 1000 nM,> 100 nM,–
COc1cc2ncnc(N3CCN(c4ncc(-c5ccc(C#N)cc5)cn4)CC3)c2cc1OC [Compound 19],> 1000 nM,> 100 nM,less than 5 times
COc1cc2ncnc(N3CCN(c4ncc(Nc5ccccc5C)cn4)CC3)c2cc1OC [Compound 32],100 to 1000 nM,10 to 100 nM,–
COc1cc2ncnc(N3CCN(c4ncc(Cc5ccccc5)cn4)C[C@@H]3C)c2cc1OC [Compound 27],> 1000 nM,> 100 nM,–

Compound,IC50 (wild type Kit),IC50 (D816V Kit),times more potent against the D816V mutant than against the wild-type Kit (D816V Kit)
COc1cc2ncnc(N3CCN(c4ncc(Cc5ccccc5)cn4)C(=O)C3)c2cc1OC [Compound 21],> 1000 nM,> 100 nM,less than 5 times
COc1cc2ncnc(N3CCN(c4ncc(Cc5ccccc5)cn4)C[C@H]3C)c2cc1OC [Compound 28],> 1000 nM,> 100 nM,less than 5 times
COc1cc2ncnc(N3CCN(c4ncc(Nc5cccnc5)cn4)CC3)c2cc1OC [Compound 16],100 to 1000 nM,10 to 100 nM,–
COc1cc2ncnc(N3CCN(c4ncc(O[C@H](C)c5ccccc5)cn4)CC3)c2cc1OC [Compound 59],100 to 1000 nM,1.01 to 10 nM,–
COc1cc2ncnc(N3CCN(c4ncc(Nc5ccc(F)c(F)c5)cn4)CC3)c2cc1OC [Compound 71],100 to 1000 nM,1.01 to 10 nM,–
COc1cc2ncnc(N3CCN(c4ncc(-c5ccccc5)cn4)CC3)c2cc1OC [Compound 9],> 1000 nM,> 100 nM,–
COc1cc2ncnc(N3CCN(c4ncc(OCc5ccccc5C)cn4)CC3)c2cc1OC [Compound 65],> 1000 nM,10 to 100 nM,–
COc1cc2ncnc(N3CCN(c4ncc(OCc5cccs5)cn4)CC3)c2cc1OC [Compound 43],100 to 1000 nM,1.01 to 10 nM,–
COc1cc2ncnc(N3CCN(c4ncc(Nc5ccc(C#N)cc5)cn4)CC3)c2cc1OC [Compound 47],> 1000 nM,10 to 100 nM,at least 100 times
COc1cccc(Cc2cnc(N3CCN(c4ncnc5cc(OC)c(OC)cc45)CC3)nc2)c1 [Compound 57],11 to 100 nM,< 1 nM,at least 100 times
COc1cc2ncnc(N3CCN(c4ncc(C(=O)Nc5ccccc5)cn4)CC3)c2cc1OC [Compound 51],> 1000 nM,10 to 100 nM,–
COc1cc2ncnc(N3CCN(c4ncc(NCc5cccc(C)c5)cn4)CC3)c2cc1OC [Compound 55],> 1000 nM,10 to 100 nM,–
COc1cc2ncnc(N3CCN(c4ncc(Cc5ccccc5C)cn4)CC3)c2cc1OC [Compound 25],100 to 1000 nM,10 to 100 nM,–
COc1cc2ncnc(N3CCN(c4ncc(OCc5ccc(C#N)cc5)cn4)CC3)c2cc1OC [Compound 73],> 1000 nM,> 100 nM,at least 100 times
COc1cc2ncnc(N3CCN(c4ncc(Nc5cccc(C)c5)cn4)CC3)c2cc1OC [Compound 33],100 to 1000 nM,10 to 100 nM,–
COc1cc2ncnc(N3CCN(c4ncc(OCc5ccc(F)cc5)cn4)CC3)c2cc1OC [Compound 69],100 to 1000 nM,10 to 100 nM,–

# The next lines start with the values.
IC50 (wild type Kit),IC50 (D816V Kit),times more potent against the D816V mutant than against the wild-type Kit (D816V Kit),Compound
< 10 nM,< 1 nM,–,COc1cc2ncnc(N3CCN(c4ncc(Cc5ccccc5)cn4)CC3)c2cc1OCC1(F)CCN(C)CC1 [Compound 131]
100 to 1000 nM,10 to 100 nM,–,COc1cc2ncnc(N3CCN(c4ncc(NC(=O)Cc5ccccc5)cn4)CC3)c2cc1OC [Compound 76]
11 to 100 nM,1.01 to 10 nM,less than 5 times,COc1cc2ncnc(N3CCN(c4ncc(Cc5ccccc5)cn4)CC3)c2cc1OC1CCN(CCO)CC1 [Compound 129]
11 to 100 nM,< 1 nM,–,COc1cc2ncnc(N3CCN(c4ncc(Cc5ccccc5)cn4)CC3)c2cc1OCC1CN(C)CCO1 (centres unmarked) [Compound 117]
> 1000 nM,> 100 nM,–,COc1cc2ncnc(N3CCN(c4ncc(OCc5ccc(C(C)(C)C)cc5)cn4)CC3)c2cc1OC [Compound 94]
11 to 100 nM,1.01 to 10 nM,–,COc1cc2ncnc(N3CCN(c4ncc(Cc5ccccc5)cn4)CC3)c2cc1OCCN1CCN(C)CC1 [Compound 126]
> 1000 nM,> 100 nM,–,COc1cc2ncnc(N3CCN(c4ncc(Nc5ccc(C(C)(C)C)cc5)cn4)CC3)c2cc1OC [Compound 82]
> 1000 nM,10 to 100 nM,–,COc1cc2ncnc(N3CCN(c4ncc(S(=O)(=O)c5ccccc5)cn4)CC3)c2cc1OC [Compound 78]
100 to 1000 nM,10 to 100 nM,–,COc1cc2ncnc(N3CCN(c4ncc(Cc5cccc(OC(F)(F)F)c5)cn4)CC3)c2cc1OC [Compound 101]
100 to 1000 nM,1.01 to 10 nM,–,COc1cc2ncnc(N3CCN(c4ncc(Cc5ccccc5)cn4)CC3)c2cc1OC1CCN(C)C1 (centres unmarked) [Compound 92]
< 10 nM,< 1 nM,–,COc1cc2ncnc(N3CCN(c4ncc(Cc5ccccc5)c(=O)[nH]4)CC3)c2cc1OC[C@H]1CNCCO1 [Compound 120]
> 1000 nM,> 100 nM,–,"COc1cc2ncnc(N3CCN(c4ncc(OCc5ccc(C(F)(F)F)cc5)cn4)CC3)c2cc1OC [Compound 102, 6,7-dimethoxy-4-(4-(5-((4-(trifluoromethyl)benzyl)oxy)pyrimidin-2-yl)piperazin-1-yl)quinazoline]"
< 10 nM,< 1 nM,–,CCOc1cc2ncnc(N3CCN(c4ncc(Cc5ccccc5)c(N)n4)CC3)c2cc1OCC1CCN(C)CC1 [Compound 135]
100 to 1000 nM,1.01 to 10 nM,–,CN1CCC(COc2ccc3ncnc(N4CCN(c5ncc(Cc6ccccc6)cn5)CC4)c3c2)CC1 [Compound 87]
11 to 100 nM,1.01 to 10 nM,–,COc1cc2ncnc(N3CCN(c4ncc(Cc5ccccc5)cn4)CC3)c2cc1OC1CCNCC1 [Compound 91]
< 10 nM,< 1 nM,–,COc1cc2ncnc(N3CCN(c4ncc(Cc5ccccc5)c(=O)[nH]4)CC3)c2cc1OCC1CCN(C)CC1 [Compound 127]
> 1000 nM,10 to 100 nM,–,COc1cc2ncnc(N3CCN(c4ncc(Cc5ccc(C(C)(C)C)cc5)cn4)CC3)c2cc1OC [Compound 81]
< 10 nM,< 1 nM,less than 5 times,CCOc1cc2ncnc(N3CCN(c4ncc(Cc5ccccc5)c(=O)[nH]4)CC3)c2cc1OCC1CCN(C)CC1 [Compound 138]
> 1000 nM,10 to 100 nM,at least 100 times,COc1ccc(COc2cnc(N3CCN(c4ncnc5cc(OC)c(OC)cc45)CC3)nc2)cc1 [Compound 77]
